The nature of the test: Inhibition of influenza A virus RNA-dependent RNA polymerase subunit PA endonuclease activity.
`O=C(Nc1ccccc1)Nc1ccc2c(C(=O)c3ccccc3)c(O)n(O)c2c1`: the pIC50 (usually −log10 of the IC50, conventionally taken in molar units) is reported as 4.54. The value for `CC(C)/C=C1\N=C(CC(C)C)C(=O)N(O)C1=O` was 5.26.

For the compound `CC(=O)c1c(O)n(O)c2cc(NC(=O)c3ccc4ccccc4c3)ccc12`, the negative-log IC50 (pIC50) stood at 5.05.

Turning to `CC(C)CC1=N/C(=C\c2ccc(F)cc2)C(=O)N(O)C1=O`, the pIC50 came out at 6.05.

Regarding `CCC(=O)c1c(O)n(O)c2cc(NC(=O)Nc3ccccc3Cl)ccc12`, the pIC50 is recorded as 4.3. The value for `OC(CN1CCCCC1)Cn1c2c(c3ccccc31)CCCC2` (stereo unspecified) was 4.44; that for `O=C(O)/C(O)=C/C(=O)C1(Cc2ccc(Cl)cc2)CCN(Cc2ccc(Cl)cc2)CC1` was 6.27. The value for `O=C(O)/C(O)=C/C(=O)C1(Cc2ccc(Cl)cc2)CCCN(Cc2ccccc2)C1` (stereo unspecified) was 5.96; that for `CC(C)CC1=N/C(=C\c2ccccc2)C(=O)N(O)C1=O` was 5.32. The value for `COc1ccc(/C=C2\N=C(CC(C)C)C(=O)N(O)C2=O)cc1` was 6.1; that for `COc1ccc(/C=C2\N=C(Cc3ccccc3)C(=O)N(O)C2=O)cc1` was 5.55.

For the compound `O=C1C(Cc2ccccc2)=N/C(=C\c2ccc(F)cc2)C(=O)N1O`, the pIC50 turned out to be 5.46. The value for `O=C1C(Cc2ccc(F)cc2)=N/C(=C\c2ccccc2)C(=O)N1O` was 5.19. The value for `O=C(O)/C(O)=C/C(=O)C1(Cc2ccc(Cl)cc2)CCCN(S(=O)(=O)Cc2ccccc2)C1` (stereo unspecified) was 6.72. `CCC(=O)c1c(O)n(O)c2cc(NC(=O)Nc3ccc(Cl)cc3)ccc12` registered a pIC50 of 4.42. For the compound `O=C(Nc1ccc2c(C(=O)c3ccccc3)c(O)n(O)c2c1)NC1CCCCC1`, the pIC50 amounted to 4.3. For `O=C(Nc1ccc2c(c1)N(O)C(=O)/C2=C(\O)c1ccccc1)c1ccc2ccccc2c1`, the pIC50 was found to be 5.1. The compound `C/C(O)=C1/C(=O)N(O)c2cc(NC(=O)c3cccs3)ccc21` displayed a pIC50 of 4.4.

As for `C/C(O)=C1/C(=O)N(O)c2cc(NC(=O)/C=C/c3ccccc3Cl)ccc21`, the pIC50 is 4.59. The value for `O=C(Nc1ccc2c(c1)N(O)C(=O)/C2=C(\O)c1ccccc1)c1cnc2ccccc2n1` was 4.77; that for `O=C(/C=C/c1ccccc1Cl)Nc1ccc2c(c1)N(O)C(=O)/C2=C(\O)c1ccccc1` was 5.02.

`Cc1nc(NCC(=O)O)sc1S(=O)(=O)Nc1ccc2c(c1)N(O)C(=O)/C2=C(\O)c1ccccc1` showed a pIC50 of 4.49.

In the case of `CC/C(O)=C1/C(=O)N(O)c2cc(NC(=O)Nc3ccccc3)ccc21`, the pIC50 is reported as 4.4. The value for `CC/C(O)=C1/C(=O)N(O)c2cc(NC(=O)c3cnc4ccccc4n3)ccc21` was 5; that for `CC/C(O)=C1/C(=O)N(O)c2cc(NC(=O)/C=C/c3ccccc3Cl)ccc21` was 5.1; that for `O=C(Nc1ccc2c(c1)N(O)C(=O)/C2=C(\O)c1ccccc1)c1ccccc1` was 5. The value for `C/C(O)=C1/C(=O)N(O)c2cc(NC(=O)c3cnc4ccccc4n3)ccc21` was 4.96; that for `Cc1cc(C(=O)Nc2ccc3c(c2)N(O)C(=O)/C3=C(\O)c2ccccc2)no1` was 5.02; that for `O=C(Nc1ccc2c(c1)N(O)C(=O)/C2=C(\O)c1ccccc1)c1cccs1` was 4.7.

The compound `O=C(Nc1ccc2c(c1)N(O)C(=O)/C2=C(\O)c1ccccc1)c1ccc(Cl)cc1Cl` had a pIC50 of 4.42. The value for `O=C1/C(=C(\O)c2ccccc2)c2ccc(NS(=O)(=O)c3cccs3)cc2N1O` was 4.32. The value for `O=C(Nc1ccc2c(c1)N(O)C(=O)/C2=C(\O)c1ccccc1)C1CCCCC1` was 4.75.

As to `CC/C(O)=C1/C(=O)N(O)c2cc(NC(=O)c3cccs3)ccc21`, the pIC50 is recorded as 4.46. As to `CC/C(O)=C1/C(=O)N(O)c2cc(NC(=O)Nc3cccc(C(=O)O)c3)ccc21`, the pIC50 is 5. The value for `CC(=O)c1c(O)n(O)c2cc(NC(=O)Nc3cccc(C(=O)O)c3)ccc12` was 4.85; that for `CCC(=O)c1c(O)n(O)c2cc(NC(=O)c3ccc(Cl)cc3Cl)ccc12` was 4.35.

Source of the values: ChEMBL document CHEMBL3102778, “Design of the influenza virus inhibitors targeting the PA endonuclease using 3D-QSAR modeling, side-chain hopping, and docking” (Bioorg Med Chem Lett, 2014).
